Tests used:
α2c Adrenergic receptor = target: T1, α2c Adrenergic receptor (Homo sapiens, UniProt P18825); test: α2c Adrenergic receptor radioligand binding ([3H] MK-912); conditions: 10 μM solution; for inhibition at 10 µM: read-out: Percentage Inhibition of Specific Binding, α2c receptor
T1 construct: expressed in transfected cells; host or cells: insect Sf9 cells
T1 sequence (P18825 1-462): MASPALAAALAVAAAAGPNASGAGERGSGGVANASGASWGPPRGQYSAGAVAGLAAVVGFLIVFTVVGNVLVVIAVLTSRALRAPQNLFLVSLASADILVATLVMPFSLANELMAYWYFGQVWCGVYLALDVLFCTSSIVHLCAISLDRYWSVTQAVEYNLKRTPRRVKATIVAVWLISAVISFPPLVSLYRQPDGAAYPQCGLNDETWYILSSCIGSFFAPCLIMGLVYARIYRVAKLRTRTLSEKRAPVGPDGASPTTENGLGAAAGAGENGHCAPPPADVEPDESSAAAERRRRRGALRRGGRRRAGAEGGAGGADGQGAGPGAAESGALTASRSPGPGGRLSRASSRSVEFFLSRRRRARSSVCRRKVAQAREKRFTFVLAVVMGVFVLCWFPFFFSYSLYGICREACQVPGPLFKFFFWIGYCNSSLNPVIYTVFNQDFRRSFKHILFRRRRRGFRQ
Experimental: (§1) The four dihydrotetrabenazine isomers A, B, C and D were subjected to specific binding assays to test their ability to bind to the receptors and transporter proteins described below. The results are set out in Table 5
(k) α2, Adrenergic Receptor
α2c Adrenergic receptor binding activity was determined using the method of Uhlen et al., J. Pharmacol. Exp. Ther. (1994), 271:1558-1565, and the following conditions: • Source: Human recombinant insect Sf9 cells • Ligand: 1 nM [^3H]

[1] = target: T2, Serotonin Transporter (SERT) (Homo sapiens, UniProt P31645); test: Serotonin transporter radioligand binding ([125I] RTI-55); conditions: for inhibition at 10 µM: read-out: Percentage Inhibition of Specific Binding, SERT
T2 construct: expressed in transfected cells; host or cells: HEK-293 cells
Experimental: as §1
(i) Serotonin Transporter (SERT):
• Reference: Gu et al., J. Biol. Chem., 269(10):7124-7130, (1994) • Source: Human recombinant HEK-293 cells • Ligand: 0.15 nM [125I] RTI-55 • Vehicle: 1% DMSO • Incubation time/Temp: 3 hours @ 4° C. • Incubation buffer: 100 mM NaCl, 50 mM Tris HCl, 1 μM Leupeptin, 10 μM PMSF, pH 7.4 • Non Specific ligand: 10 μM Imipramine • Kd: 0.17 nM • Bmax: 0.41 pmole/mg protein • Specific binding: 95% • Quantitation method: Radioligand binding • Significance criteria: ≧50% of maximum stimulation or inhibition

Dopamine D3 Receptor = target: T3, Dopamine D3 Receptor (Homo sapiens, UniProt P35462); test: Dopamine D3 receptor radioligand binding ([3H] Spiperone); conditions: 10 μM solution; for inhibition at 10 µM: read-out: Percentage Inhibition of Specific Binding, D3 Receptor
T3 construct: expressed in transfected cells; host or cells: CHO cells
Experimental: as §1
(e) Dopamine D3 Receptor:
• Reference: Sokoloff et al., Nature, 347:146-151, (1990) • Source: Human recombinant CHO cells • Ligand: 0.7 nM [3H]

[2] = target: T4, Serotonin (5-hydroxytryptamine) 5-HT6 Receptor (Homo sapiens, UniProt P50406); test: 5-HT6 receptor radioligand binding ([3H] LSD); conditions: 10 μM solution; for inhibition at 10 µM: read-out: Percentage Inhibition of Specific Binding, 5-HT6 receptor
T4 construct: expressed in transfected cells; host or cells: HeLa cells
Excerpt: as §1

[3] = target: T5, Serotonin (5-hydroxytryptamine) 5-HT2b Receptor (Homo sapiens, UniProt P41595); test: 5-HT2b receptor radioligand binding ([3H] LSD); conditions: 10 μM solution; for inhibition at 10 µM: read-out: Percentage Inhibition of Specific Binding, 5-HT2b receptor
T5 construct: expressed in transfected cells; host or cells: CHO-K1 cells

Sigma σ2 Receptor = target: T6, Sigma σ2 Receptor (Rattus norvegicus, UniProt Q5U3Y7); test: Sigma σ2 receptor radioligand binding ([3H] Ifenprodil); set-up: species or system Wistar rat; conditions: 10 μM solution; for inhibition at 10 µM: read-out: Percentage Inhibition of Specific Binding, σ2 Receptor
T6 construct: from tissue; host or cells: Wistar rat brain
T6 sequence (Q5U3Y7 1-176): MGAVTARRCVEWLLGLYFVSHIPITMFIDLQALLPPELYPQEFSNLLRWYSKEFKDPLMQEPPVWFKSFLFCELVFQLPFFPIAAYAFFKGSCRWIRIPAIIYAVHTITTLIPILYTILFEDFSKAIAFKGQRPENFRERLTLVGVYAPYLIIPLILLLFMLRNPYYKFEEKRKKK
Experimental: as §1
• Reference: Hashimoto et al., Eur. J. Pharmacol., 236:159-163, (1993) • Source: Wistar rat brain • Ligand: 3 nM [3H]

[4] = test system: Imidazoline I2 (Central) Receptor; test: Imidazoline I2 (central) receptor radioligand binding ([3H] Idazoxan); set-up: species or system Wistar rat; conditions: 10 μM solution
Experimental: as §1
(f) Imidazoline I2 (Central) Receptor:
• Reference: Brown et al., Brit. I Pharmacol., 99:803-809, (1990) • Source: Wistar rat cerebral cortex • Ligand: 2 nM [3H] Idazoxan • Vehicle: 1% DMSO • Incubation time/Temp: 30 minutes @ 25° C. • Incubation buffer: 50 mM Tris-HCl, 0.5 mM EDTA, pH 7.4 at 25° C. • Non Specific ligand: 1 μM Idazoxan • Kd: 4 nM • Bmax: 0.14 pmole/mg protein • Specific binding: 85% • Quantitation method: Radioligand binding • Significance criteria: ≧50% of maximum stimulation or inhibition

Adrenergic α2B Receptor = target: T7, Adrenergic α2B Receptor (Homo sapiens, UniProt P18089); test: Adrenergic α2B receptor radioligand binding ([3H] Rauwolscine); conditions: 10 μM solution; for inhibition at 10 µM: read-out: Percentage Inhibition of Specific Binding, α2B Receptor
T7 construct: expressed in transfected cells; host or cells: CHO-K1 cells
T7 sequence (P18089 1-450): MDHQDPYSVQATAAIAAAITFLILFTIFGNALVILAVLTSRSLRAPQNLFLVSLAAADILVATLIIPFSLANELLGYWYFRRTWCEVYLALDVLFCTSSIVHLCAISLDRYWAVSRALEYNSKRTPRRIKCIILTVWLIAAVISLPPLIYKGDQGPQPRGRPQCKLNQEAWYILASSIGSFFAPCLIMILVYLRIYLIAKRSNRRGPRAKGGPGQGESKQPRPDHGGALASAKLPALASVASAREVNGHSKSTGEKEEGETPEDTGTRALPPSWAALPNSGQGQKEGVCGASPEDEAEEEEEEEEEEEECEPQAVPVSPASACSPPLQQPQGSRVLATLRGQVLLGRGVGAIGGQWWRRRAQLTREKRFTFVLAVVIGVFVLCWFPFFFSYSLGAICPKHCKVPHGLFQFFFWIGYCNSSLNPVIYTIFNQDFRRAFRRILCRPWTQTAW
Experimental: as §1
(b) Adrenergic α2B Receptor:
• Reference: S. Uhlen et al., Eur. I Pharmacol., 33 (1): 93-1-1 (1998) • Source: Human recombinant CHO-K1 cells • Ligand: 2.5 nM [3H]

Sigma σ1 Receptor = target: T8, Sigma σ1 Receptor (Homo sapiens, UniProt Q99720); test: Sigma σ1 receptor radioligand binding ([3H] Haloperidol); conditions: 10 μM solution; for inhibition at 10 µM: read-out: Percentage Inhibition of Specific Binding, σ1 Receptor
T8 construct: endogenous in cells; host or cells: Jurkat cells
Experimental: as §1
• Reference: Ganaphthy et al., Pharmacol. Exp. Ther., 289:251-260, (1999) • Source: Human jurkat cells • Ligand: 8 nM [3H]

T2 sequence (P31645 whole entry): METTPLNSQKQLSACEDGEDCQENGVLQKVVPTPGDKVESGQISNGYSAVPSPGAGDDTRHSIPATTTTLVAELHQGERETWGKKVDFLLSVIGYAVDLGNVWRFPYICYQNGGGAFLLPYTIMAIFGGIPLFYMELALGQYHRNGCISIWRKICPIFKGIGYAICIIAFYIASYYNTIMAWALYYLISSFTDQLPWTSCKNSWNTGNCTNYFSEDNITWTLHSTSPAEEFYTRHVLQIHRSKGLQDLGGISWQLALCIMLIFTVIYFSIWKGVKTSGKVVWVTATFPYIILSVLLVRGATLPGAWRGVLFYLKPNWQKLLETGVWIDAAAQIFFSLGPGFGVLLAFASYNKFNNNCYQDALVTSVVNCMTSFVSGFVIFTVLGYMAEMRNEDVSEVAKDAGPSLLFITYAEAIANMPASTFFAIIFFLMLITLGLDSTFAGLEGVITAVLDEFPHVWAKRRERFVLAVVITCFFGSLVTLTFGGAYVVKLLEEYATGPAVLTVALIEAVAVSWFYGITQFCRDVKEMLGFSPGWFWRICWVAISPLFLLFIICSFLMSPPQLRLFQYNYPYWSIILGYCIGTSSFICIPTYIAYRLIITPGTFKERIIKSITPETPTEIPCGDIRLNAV
T5 sequence (P41595 whole entry): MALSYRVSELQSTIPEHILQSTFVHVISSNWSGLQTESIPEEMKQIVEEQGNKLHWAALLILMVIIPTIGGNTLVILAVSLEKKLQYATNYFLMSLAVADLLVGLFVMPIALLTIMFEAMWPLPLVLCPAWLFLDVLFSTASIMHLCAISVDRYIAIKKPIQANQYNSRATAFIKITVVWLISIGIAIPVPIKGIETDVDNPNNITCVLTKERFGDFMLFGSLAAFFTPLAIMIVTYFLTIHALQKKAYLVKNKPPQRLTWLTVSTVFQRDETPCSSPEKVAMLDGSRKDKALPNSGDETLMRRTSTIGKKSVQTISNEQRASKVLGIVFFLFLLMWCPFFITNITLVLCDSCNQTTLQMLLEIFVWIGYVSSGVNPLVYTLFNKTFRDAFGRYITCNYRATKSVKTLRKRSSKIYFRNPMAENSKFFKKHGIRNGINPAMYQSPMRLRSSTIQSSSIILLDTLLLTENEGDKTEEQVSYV
T4 sequence (P50406 whole entry): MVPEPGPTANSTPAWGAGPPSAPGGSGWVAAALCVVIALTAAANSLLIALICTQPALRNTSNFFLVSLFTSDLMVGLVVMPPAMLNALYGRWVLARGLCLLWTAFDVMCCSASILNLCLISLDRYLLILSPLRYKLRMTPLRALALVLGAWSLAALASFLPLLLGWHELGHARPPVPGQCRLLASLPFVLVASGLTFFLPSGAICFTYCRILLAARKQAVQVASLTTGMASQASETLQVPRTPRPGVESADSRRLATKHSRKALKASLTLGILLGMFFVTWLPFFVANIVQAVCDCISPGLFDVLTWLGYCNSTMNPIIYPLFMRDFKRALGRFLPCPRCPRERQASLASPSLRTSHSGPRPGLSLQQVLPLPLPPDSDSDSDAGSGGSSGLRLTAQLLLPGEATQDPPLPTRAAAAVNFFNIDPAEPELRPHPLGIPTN
T3 sequence (P35462 whole entry): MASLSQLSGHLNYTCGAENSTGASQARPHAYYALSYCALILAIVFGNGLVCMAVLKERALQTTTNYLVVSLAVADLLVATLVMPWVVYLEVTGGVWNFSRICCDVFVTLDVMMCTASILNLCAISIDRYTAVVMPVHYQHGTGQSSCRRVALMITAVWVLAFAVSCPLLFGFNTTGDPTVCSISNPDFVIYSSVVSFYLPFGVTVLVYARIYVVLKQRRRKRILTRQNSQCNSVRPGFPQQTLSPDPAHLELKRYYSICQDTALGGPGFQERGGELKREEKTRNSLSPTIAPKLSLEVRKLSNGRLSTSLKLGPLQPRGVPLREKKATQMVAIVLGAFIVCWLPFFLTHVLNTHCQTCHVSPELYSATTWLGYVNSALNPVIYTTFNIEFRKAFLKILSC
T8 sequence (Q99720 whole entry): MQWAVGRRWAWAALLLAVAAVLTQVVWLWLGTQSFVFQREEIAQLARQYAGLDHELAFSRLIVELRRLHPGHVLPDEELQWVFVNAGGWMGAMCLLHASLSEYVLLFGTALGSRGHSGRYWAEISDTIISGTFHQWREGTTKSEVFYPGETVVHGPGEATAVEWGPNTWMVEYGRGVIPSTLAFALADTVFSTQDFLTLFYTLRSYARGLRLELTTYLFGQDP

| Structure (SMILES) | Percentage Inhibition of Specific Binding, α2c receptor (α2c Adrenergic receptor) | Percentage Inhibition of Specific Binding, SERT ([1]; 10 μM solution) | Percentage Inhibition of Specific Binding, D3 Receptor (Dopamine D3 Receptor) | Percentage Inhibition of Specific Binding, 5-HT6 receptor [2] | Percentage Inhibition of Specific Binding, 5-HT2b receptor [3] | Percentage Inhibition of Specific Binding, σ2 Receptor (Sigma σ2 Receptor) | Percentage Inhibition of Specific Binding, I2 Receptor [4] | Percentage Inhibition of Specific Binding, α2B Receptor (Adrenergic α2B Receptor) | Percentage Inhibition of Specific Binding, σ1 Receptor (Sigma σ1 Receptor) | inhibition at 10 µM (α2c Adrenergic receptor) | inhibition at 10 µM ([1]; 10 μM solution) | IC50 ([1]; value in parentheses, unit inferred) | inhibition at 10 µM (Dopamine D3 Receptor) | inhibition at 10 µM [2] | inhibition at 10 µM [3] | inhibition at 10 µM (Sigma σ2 Receptor) | inhibition at 10 µM (Adrenergic α2B Receptor) | inhibition at 10 µM (Sigma σ1 Receptor) |
| --- | --- | --- | --- | --- | --- | --- | --- | --- | --- | --- | --- | --- | --- | --- | --- | --- | --- | --- |
| COc1cc2c(cc1OC)[C@H]1C[C@@H](O)[C@H](CC(C)C)CN1CC2 (single isomer, unassigned; isomer d) [Isomer D] | 74% | 8% | 63% | 41% | 43% | 69% | 55% | 50% | 82% |  |  |  |  |  |  |  |  |  |
| COc1cc2c(cc1OC)C1CC(O)C(CC(C)C)CN1CC2 (single isomer, unassigned) [Isomer C] |  |  |  |  |  |  | 0% |  |  | 3% | 77% | 2750 nM | 9% | 10% | 14% | 61% | -7% | 59% |
| COc1cc2c(cc1OC)[C@@H]1C[C@@H](O)[C@H](CC(C)C)CN1CC2 (single isomer, unassigned) [Isomer A] |  |  |  |  |  |  | 74% |  |  | 56% | 19% |  | 69% | 51% | 74% | 64% | 44% | 48% |
| COc1cc2c(cc1OC)[C@H]1C[C@H](O)[C@@H](CC(C)C)CN1CC2 (single isomer, unassigned) [Isomer B] |  |  |  |  |  |  | 8% |  |  | -6% | 86% |  | 7% | 10% | 10% | 64% | 14% | 82% |

From patent publication US20110257220A1, “3,11 b-cis-Dihydrotetrabenazine for the Treatment of Schizophrenia and Other Psychoses” (CAMBRIDGE LABORATORIES (IRELAND) LIMITED, priority 2005, published 2011)
